From ChEMBL document CHEMBL1201862, “PubChem BioAssay data set” (2004)
Calls of active or inactive are those of the source.

Key:
Ephrin type-A receptor 4 = Ephrin type-A receptor 4 (Mus musculus, UniProt Q03137); test: EphA4 ligand-binding antagonists – biochemical, colorimetric, mouse EphA4, primary screen (AID 689); assay type: functional
[1] = viability loss in Vero cells – cytotoxicity control for Vif-APOBEC3G degradation inhibitor project, dose response (AID 1117358); assay type: functional; details: Vero
[2] = biological target: T1, Calpain-2 catalytic subunit (Sus scrofa, UniProt P43367); test: m-calpain protease blockers, concentration series – biochemical, fluorogenic peptide substrate, dose response (AID 1420); assay type: functional
T1 sequence (P43367 whole entry): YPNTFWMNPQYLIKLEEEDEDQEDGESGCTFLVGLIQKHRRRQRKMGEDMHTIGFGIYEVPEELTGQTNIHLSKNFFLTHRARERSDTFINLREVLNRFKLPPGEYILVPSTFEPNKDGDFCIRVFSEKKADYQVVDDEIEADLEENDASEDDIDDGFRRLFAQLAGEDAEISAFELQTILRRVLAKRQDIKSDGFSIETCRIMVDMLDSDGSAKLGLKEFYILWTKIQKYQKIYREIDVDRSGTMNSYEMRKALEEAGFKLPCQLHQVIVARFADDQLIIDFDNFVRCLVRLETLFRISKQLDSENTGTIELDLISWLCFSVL

[3] = biological target: T2, Polyadenylate-binding protein 1 (Homo sapiens, UniProt P11940); test: MLLE domain peptide-binding blockers, IC50 – biochemical, fluorescence polarization, FITC-PAM2 peptide, dose response (AID 602259); assay type: functional; details: read-out: IC50_Mean
T2 sequence (P11940 whole entry, the tested form may be a part): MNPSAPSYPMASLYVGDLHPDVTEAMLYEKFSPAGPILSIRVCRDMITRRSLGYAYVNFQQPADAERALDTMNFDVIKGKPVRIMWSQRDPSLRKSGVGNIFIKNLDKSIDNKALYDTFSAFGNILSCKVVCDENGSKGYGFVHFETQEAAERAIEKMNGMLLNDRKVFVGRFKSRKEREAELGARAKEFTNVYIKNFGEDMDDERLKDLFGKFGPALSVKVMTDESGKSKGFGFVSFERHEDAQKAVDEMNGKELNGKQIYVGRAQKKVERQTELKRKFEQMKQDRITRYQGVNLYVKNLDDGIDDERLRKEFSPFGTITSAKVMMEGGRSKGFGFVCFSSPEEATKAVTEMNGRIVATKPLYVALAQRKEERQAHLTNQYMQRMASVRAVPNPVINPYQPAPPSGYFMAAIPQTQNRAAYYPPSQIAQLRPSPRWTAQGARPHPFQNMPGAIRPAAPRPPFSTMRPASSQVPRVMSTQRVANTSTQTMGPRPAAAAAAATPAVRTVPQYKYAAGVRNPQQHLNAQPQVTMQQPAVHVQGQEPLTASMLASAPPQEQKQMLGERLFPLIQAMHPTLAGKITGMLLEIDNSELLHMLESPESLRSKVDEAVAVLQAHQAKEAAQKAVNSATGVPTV

Genome polyprotein = Genome polyprotein (dengue virus type 2, UniProt P29990); test: flavivirus cap methylation enzyme inhibition – biochemical, confirmation dose response, primary screen (AID 588689); assay type: functional
Genome polyprotein, sequence (P29990 2492-3391 limits assumed): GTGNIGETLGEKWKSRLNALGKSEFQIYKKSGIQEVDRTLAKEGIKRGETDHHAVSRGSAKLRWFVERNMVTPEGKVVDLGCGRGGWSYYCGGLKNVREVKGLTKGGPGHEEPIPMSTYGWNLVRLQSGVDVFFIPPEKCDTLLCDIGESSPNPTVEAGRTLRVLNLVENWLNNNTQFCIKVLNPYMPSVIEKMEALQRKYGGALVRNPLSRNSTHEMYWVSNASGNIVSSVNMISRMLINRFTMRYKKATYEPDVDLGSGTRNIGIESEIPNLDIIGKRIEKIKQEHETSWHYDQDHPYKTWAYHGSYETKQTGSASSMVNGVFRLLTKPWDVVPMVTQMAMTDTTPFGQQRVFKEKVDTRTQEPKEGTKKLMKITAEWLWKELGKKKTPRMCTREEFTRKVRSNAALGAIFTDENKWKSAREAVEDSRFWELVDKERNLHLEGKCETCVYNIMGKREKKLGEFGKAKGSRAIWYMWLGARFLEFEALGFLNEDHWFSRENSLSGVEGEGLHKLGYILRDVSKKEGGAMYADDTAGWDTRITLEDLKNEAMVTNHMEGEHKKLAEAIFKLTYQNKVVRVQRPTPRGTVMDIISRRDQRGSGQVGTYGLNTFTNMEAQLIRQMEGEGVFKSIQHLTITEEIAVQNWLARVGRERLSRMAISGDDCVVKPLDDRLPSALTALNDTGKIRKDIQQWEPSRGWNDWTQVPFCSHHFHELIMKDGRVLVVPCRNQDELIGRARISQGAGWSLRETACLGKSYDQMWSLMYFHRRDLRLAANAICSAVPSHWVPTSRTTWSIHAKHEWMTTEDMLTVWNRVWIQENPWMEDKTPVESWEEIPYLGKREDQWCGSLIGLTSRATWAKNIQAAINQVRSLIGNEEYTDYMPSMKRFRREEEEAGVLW

Caspase-6 = Caspase-6 (Homo sapiens, UniProt P55212); test: inhibition of CASP6 peptide cleavage – biochemical, VEID-R110 fluorescence, cherry-pick, dose response (AID 720632)
Caspase-6, sequence (P55212 24-179 limits assumed): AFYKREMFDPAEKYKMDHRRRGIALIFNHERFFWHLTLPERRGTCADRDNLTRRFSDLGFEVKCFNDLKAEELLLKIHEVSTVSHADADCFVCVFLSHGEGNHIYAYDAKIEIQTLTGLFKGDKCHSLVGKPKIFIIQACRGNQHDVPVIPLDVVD
Caspase-6, sequence (P55212 194-293 limits assumed): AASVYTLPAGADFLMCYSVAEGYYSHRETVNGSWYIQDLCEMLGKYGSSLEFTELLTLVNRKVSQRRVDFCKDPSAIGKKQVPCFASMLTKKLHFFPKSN

[4] = biological target: T2, Polyadenylate-binding protein 1; test: MLLE binding blockers, Cy5 peptide tracer – biochemical, fluorescence polarization, Cy5-PAM2 peptide, secondary, miRNA deadenylation inhibitor project, dose response (AID 602260); assay type: functional; details: read-out: IC50_Mean
[5] = biological target: T3, Methionyl-tRNA synthetase, putative (Trypanosoma brucei brucei, UniProt Q38C91); assay type: functional, Trypanosoma brucei brucei strain 927/4 GUTat10.1
T3 sequence (Q38C91 whole entry): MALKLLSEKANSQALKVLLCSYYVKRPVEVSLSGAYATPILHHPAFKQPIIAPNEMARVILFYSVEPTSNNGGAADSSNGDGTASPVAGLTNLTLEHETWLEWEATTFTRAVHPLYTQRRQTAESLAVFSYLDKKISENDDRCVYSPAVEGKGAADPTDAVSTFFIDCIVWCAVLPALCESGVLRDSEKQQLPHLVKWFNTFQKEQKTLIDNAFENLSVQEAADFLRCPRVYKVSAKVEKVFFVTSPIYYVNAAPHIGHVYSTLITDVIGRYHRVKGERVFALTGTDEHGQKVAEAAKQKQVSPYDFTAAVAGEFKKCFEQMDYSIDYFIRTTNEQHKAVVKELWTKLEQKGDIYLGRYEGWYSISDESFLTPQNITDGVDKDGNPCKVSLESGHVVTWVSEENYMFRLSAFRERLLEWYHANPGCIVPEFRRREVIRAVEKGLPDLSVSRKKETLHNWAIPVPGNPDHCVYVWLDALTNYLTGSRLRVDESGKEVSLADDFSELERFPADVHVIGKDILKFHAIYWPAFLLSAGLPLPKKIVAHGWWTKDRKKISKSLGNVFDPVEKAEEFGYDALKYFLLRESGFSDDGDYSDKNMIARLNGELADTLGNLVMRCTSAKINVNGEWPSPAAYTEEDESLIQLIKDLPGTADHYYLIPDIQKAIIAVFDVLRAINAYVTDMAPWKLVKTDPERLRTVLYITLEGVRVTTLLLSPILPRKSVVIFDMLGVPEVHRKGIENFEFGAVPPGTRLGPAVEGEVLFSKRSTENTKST

[6] = Late stage counterscreen for inhibitors of Trypanosoma brucei methionyl tRNA synthetase (MetRS): Luminescence-based cell-based high throughput dose response assay to identify compounds that are cytotoxic to Jurkat human T lymphocyte cells.; assay type: functional
[7] = Counterscreen for inhibitors of Trypanosoma brucei methionyl tRNA synthetase (MetRS): Luminescence-based cell-based high throughput dose response assay to identify compounds that are cytotoxic to Jurkat human T lymphocyte cells.; assay type: functional
[8] = biological target: T3, Methionyl-tRNA synthetase, putative; assay type: functional, Trypanosoma brucei brucei strain 927/4 GUTat10.1; remark: listed apart in the source
[9] = biological target: T4, NAD-dependent protein deacylase sirtuin-5, mitochondrial (Homo sapiens, UniProt Q9NXA8); test: sirtuin-5 deacylation blockers, concentration series – biochemical, fluorescence imaging, cherry-pick, set 5, dose response (AID 720591);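 note: desuccinylation of succinyl peptide AMC substrate read as fluorescence after trypsin release; potency of inhibitors that lower fluorescence and may act on trypsin instead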
T4 sequence (Q9NXA8 whole entry): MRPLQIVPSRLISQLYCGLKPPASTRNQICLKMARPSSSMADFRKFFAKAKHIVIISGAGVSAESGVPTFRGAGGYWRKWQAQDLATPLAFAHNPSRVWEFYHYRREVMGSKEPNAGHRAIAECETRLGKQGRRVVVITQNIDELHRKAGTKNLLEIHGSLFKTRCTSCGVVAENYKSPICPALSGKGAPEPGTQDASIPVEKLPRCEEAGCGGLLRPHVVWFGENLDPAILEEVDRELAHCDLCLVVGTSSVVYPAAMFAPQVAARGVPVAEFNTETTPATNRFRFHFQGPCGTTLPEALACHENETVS

[10] = biological target: T4, NAD-dependent protein deacylase sirtuin-5, mitochondrial; test: blockers of sirtuin-5 peptide desuccinylation – biochemical, fluorescence imaging, cherry-pick, set 6, dose response (AID 720597)
Bcl-2-like protein 10 = biological target: T5, Bcl-2-like protein 10 (Homo sapiens, UniProt Q9HD36); test: Bcl-B/TR3 peptide binding disruption – biochemical, fluorescence polarization, FITC-TR3 peptide, selectivity assay for Bfl-1 inhibitor project, primary screen (AID 748);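 note: fluorescence polarization from a fluorescein-labelled TR3 peptide binding purified Bcl-B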
T5 sequence (Q9HD36 whole entry): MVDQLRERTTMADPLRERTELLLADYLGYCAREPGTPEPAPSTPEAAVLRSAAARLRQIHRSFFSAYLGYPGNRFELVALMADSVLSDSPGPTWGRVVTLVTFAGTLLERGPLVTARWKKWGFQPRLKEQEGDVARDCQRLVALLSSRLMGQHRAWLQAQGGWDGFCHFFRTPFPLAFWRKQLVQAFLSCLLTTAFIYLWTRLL

[11] = biological target: T6, Tyrosine-protein phosphatase non-receptor type 7 (Homo sapiens, UniProt P35236); test: HePTP tyrosine phosphatase activity blockers – biochemical, absorbance, leukemia target, primary screen (AID 521); assay type: functional
T6 sequence (P35236 whole entry): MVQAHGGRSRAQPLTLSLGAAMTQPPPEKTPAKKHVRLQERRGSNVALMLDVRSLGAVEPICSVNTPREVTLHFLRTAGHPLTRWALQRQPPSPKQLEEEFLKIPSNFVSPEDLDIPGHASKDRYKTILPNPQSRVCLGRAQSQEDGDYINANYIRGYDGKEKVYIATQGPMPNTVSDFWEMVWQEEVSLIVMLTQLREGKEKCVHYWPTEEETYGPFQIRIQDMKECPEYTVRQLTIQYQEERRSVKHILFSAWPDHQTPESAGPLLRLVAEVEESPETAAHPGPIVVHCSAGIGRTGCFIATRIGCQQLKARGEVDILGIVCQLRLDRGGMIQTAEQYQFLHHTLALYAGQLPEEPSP

Ephrin type-A receptor 4, sequence (Q03137 whole entry): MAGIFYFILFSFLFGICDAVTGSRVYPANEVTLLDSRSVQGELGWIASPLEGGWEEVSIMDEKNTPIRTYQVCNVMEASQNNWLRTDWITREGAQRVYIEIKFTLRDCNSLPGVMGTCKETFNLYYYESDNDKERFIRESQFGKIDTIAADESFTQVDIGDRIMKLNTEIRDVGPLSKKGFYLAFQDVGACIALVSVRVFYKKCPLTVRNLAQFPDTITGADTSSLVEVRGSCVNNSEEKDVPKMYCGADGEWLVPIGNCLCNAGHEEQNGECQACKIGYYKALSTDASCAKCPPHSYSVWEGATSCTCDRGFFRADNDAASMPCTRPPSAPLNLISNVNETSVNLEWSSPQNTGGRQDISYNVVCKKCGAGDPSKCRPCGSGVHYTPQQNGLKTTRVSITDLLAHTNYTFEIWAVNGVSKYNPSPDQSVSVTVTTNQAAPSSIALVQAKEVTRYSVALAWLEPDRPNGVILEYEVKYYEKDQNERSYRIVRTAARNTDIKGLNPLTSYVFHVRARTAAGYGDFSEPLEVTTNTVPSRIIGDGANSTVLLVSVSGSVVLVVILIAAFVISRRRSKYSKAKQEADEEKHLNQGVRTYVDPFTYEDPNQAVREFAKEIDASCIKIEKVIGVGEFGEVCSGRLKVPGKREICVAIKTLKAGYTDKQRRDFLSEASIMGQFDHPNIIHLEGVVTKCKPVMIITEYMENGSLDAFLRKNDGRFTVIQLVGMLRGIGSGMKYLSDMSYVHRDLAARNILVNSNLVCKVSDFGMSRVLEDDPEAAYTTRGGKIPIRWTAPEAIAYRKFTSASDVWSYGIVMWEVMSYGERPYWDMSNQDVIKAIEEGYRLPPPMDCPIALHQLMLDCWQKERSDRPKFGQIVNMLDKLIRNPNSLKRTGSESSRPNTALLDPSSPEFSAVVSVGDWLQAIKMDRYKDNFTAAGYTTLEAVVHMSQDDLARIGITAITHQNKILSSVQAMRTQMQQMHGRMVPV

**Q.** For `COc1ccc(N(C(=O)c2ccco2)S(=O)(=O)c2cc(Cl)c(Cl)cc2Cl)cc1`, which IC50 (Ephrin type-A receptor 4) is on record?
**A.** > 100 µM (not active)

**Q.** And the CC50 [1]?
**A.** > 40 µM (active)

**Q.** What about the IC50 [2] of the same compound?
**A.** 11 µM (not active)

**Q.** With `O=[N+]([O-])c1cc2ccccc2c(O)c1O` as the compound, how does the IC50 [3] read?
**A.** > 66 µM (inactive)

**Q.** What about the IC50 (Genome polyprotein) of the same compound?
**A.** 7.79 µM (active)

**Q.** What about the AC50 (Caspase-6) of the same compound?
**A.** 13.4 µM (active)

**Q.** What about the IC50 [4] of the same compound?
**A.** > 66 µM (inactive)

**Q.** With `COc1ccccc1-n1c(SCC(=O)Nc2ccc(Cl)cc2)nc(=O)c(Cc2ccccc2)c1O` as the compound, how does the IC50 [5] read?
**A.** 5.59 µM (active)

**Q.** What about the IC50 [6] of the same compound?
**A.** 77.1 µM (inactive)

**Q.** And the IC50 [7]?
**A.** 74.5 µM (inactive)

**Q.** What about the IC50 [8] of the same compound?
**A.** 5.07 µM (active)

**Q.** Which AC50 [9] does the source give for `O=C(O)C1=C2C(=O)Nc3cccc(c32)C2(C1)C(=O)Nc1ccccc12` (stereo unspecified) here?
**A.** 25.1 µM (active)

**Q.** With `Cc1ccc(S(=O)(=O)Nc2ccc3c(c2)C(=O)N([C@@H](C)CO)C[C@@H](C)[C@H](CN(C)S(=O)(=O)c2ccc(F)cc2)OCCCC[C@@H](C)O3)cc1` as the compound, how does the AC50 [10] read?
**A.** > 30 µM (inactive)

**Q.** For `O=C(c1ccccc1F)N1C[C@H]2[C@@H](c3ccccc31)[C@@H](CO)N2CC1CCCCC1`, which AC50 [10] is on record?
**A.** > 30 µM (inactive)

**Q.** For `C/C(N)=C(/C#N)C(=O)CSc1nnc(Nc2c(C)cccc2C)s1`, which IC50 (Bcl-2-like protein 10) is on record?
**A.** 17.2 µM (active)

**Q.** And the IC50 [11]?
**A.** 30.2 µM (active)
